The target in this assay is T1, Dimer of Gag-Pol polyprotein [489-587] (Human immunodeficiency virus 1, UniProt P12497).
T1 construct: 489-587
The assay is described as follows: Protease Inhibition Assay. The note with it: pH 5.5; 37 °C. The method, then: Inhibition of HIV protease was measured by assay of the cleavage of a fluorescent peptide substrate. The fluorescent product (2-aminobenzoyl-Ala-Thr-His-Gln-Val-Tyr) was separated from the fluorescent substrate by anion-exchange HPLC on a Mono-Q anion-exchange column (Pharmacia), and fluorescence was monitored at an excitation wavelength of 330 nm and an emission wavelength of 430 nm. Ki values for inhibitor binding were estimated at fixed concentrations of substrate and inhibitor from fractional activity measurements by use of the modified Michaelis-Menten equation.

In general, pKi refers to −log10 of the Ki, conventionally taken in molar units.

pKi: −log10 of the molar value.

`COc1cccc(C[C@@H]2[C@H](O)[C@@H](O)[C@@H](Cc3cccc(OC)c3)N(Cc3ccc(CO)cc3)C(=O)N2Cc2ccc(CO)cc2)c1` [(4R,5S,6S,7R)-5,6-dihydroxy-1,3-bis({[4-(hydroxymethyl)phenyl]methyl})-4,7-bis[(3-methoxyphenyl)methyl]-1,3-diazepan-2-one]: the pKi is 9.96. In the case of `O=C1N(Cc2ccc(CO)cc2)[C@H](Cc2ccc(F)cc2)[C@H](O)[C@@H](O)[C@@H](Cc2ccc(F)cc2)N1Cc1ccc(CO)cc1` [(4R,5S,6S,7R)-Hexahydro-5,6-dihydroxy-1,3-bis-[[4-(hydroxymethyl)phenyl]methyl]-4,7-bis[(4-fluorophenyl)methyl]-2H-1,3-diazapin-2-one], the negative-log Ki (pKi) was 9.36. For `O=C1N(Cc2ccc(CO)cc2)[C@H](Cc2ccc(F)c(F)c2)[C@H](O)[C@@H](O)[C@@H](Cc2ccc(F)c(F)c2)N1Cc1ccc(CO)cc1` [(4R,5S,6S,7R)-4,7-bis[(3,4-difluorophenyl)methyl]-5,6-dihydroxy-1,3-bis({[4-(hydroxymethyl)phenyl]methyl})-1,3-diazepan-2-one], the pKi is 9.33.

In the case of `CSCC[C@@H]1[C@H](O)[C@@H](O)[C@@H](CCSC)N(Cc2ccc(CO)cc2)C(=O)N1Cc1ccc(CO)cc1` [(4R,5S,6S,7R)-Hexahydro-5,6-dihydroxy-1,3-bis-[[4-(hydroxymethyl)phenyl]methyl]-4,7-bis[2-(methylthio)ethyl]-2H-1,3-diazapin-2-one], the pKi was 5.41.

Turning to `O=C(Nc1nc2ccccc2[nH]1)c1cccc(CN2C(=O)N(Cc3cccc(C(=O)Nc4nc5ccccc5[nH]4)c3)[C@H](Cc3ccccc3)[C@H](O)[C@@H](O)[C@H]2Cc2ccccc2)c1` [N-(1H-1,3-benzodiazol-2-yl)-3-{[(4R,5S,6S,7R)-3-{[3-(1H-1,3-benzodiazol-2-ylcarbamoyl)phenyl]methyl}-4,7-dibenzyl-5,6-dihydroxy-2-oxo-1,3-diazepan-1-yl]methyl}benzamide], the pKi was 10.62. For `O=C1N(Cc2ccc(CO)cc2)[C@H](CC2CCCCC2)[C@H](O)[C@@H](O)[C@@H](CC2CCCCC2)N1Cc1ccc(CO)cc1` [(4R,5S,6S,7R)-4,7-bis(cyclohexylmethyl)-5,6-dihydroxy-1,3-bis({[4-(hydroxymethyl)phenyl]methyl})-1,3-diazepan-2-one], the pKi was 7.49. On to `CC(C)C[C@@H]1[C@H](O)[C@@H](O)[C@@H](CC(C)C)N(Cc2ccc(CO)cc2)C(=O)N1Cc1ccc(CO)cc1` [(4R,5S,6S,7R)-5,6-dihydroxy-1,3-bis({[4-(hydroxymethyl)phenyl]methyl})-4,7-bis(2-methylpropyl)-1,3-diazepan-2-one], for which the negative-log Ki (pKi) was 7.42.

Turning to `COc1ccc(C[C@@H]2[C@H](O)[C@@H](O)[C@@H](Cc3ccc(OC)cc3)N(Cc3ccc(CO)cc3)C(=O)N2Cc2ccc(CO)cc2)cc1` [(4R,5S,6S,7R)-Hexahydro-5,6-dihydroxy-1,3-bis-[[4-(hydroxymethyl)phenyl]methyl]-4,7-bis[(4-methoxyphenyl)methyl]-2H-1,3-diazapin-2-one], the pKi is 9.62. Consider `O=C1N(CC2CC2)[C@H](Cc2cccs2)[C@H](O)[C@@H](O)[C@@H](Cc2cccs2)N1CC1CC1` [(4R,5S,6S,7R)-Hexahydro-5,6-dihydroxy-1,3-bis-(cyclopropylmethyl)-4,7-bis(2-thienylmethyl)-2H-1,3-diazapin-2-one], for which the pKi was 8.04. With `O=C1N(Cc2ccc(CO)cc2)[C@H](Cc2ccncc2)[C@H](O)[C@@H](O)[C@@H](Cc2ccncc2)N1Cc1ccc(CO)cc1` [(4R,5S,6S,7R)-5,6-dihydroxy-1,3-bis({[4-(hydroxymethyl)phenyl]methyl})-4,7-bis(pyridin-4-ylmethyl)-1,3-diazepan-2-one], the pKi was 8.32.

(Values after BindingDB's records for doi:10.1016/s0960-894x(98)00175-9 (Dupont Pharmaceuticals, 1998).)
